Patent publication EP4782453A1 (Beyang Therapeutics Co., Ltd., priority 2023, dated 2025)
Read-outs that look alike come from different tables or passages of the source.

Tests used:
Menin-MLL = biological target: T1, Menin-MLL (Homo sapiens, UniProt O00255); assay: Inhibitory activity against Menin-MLL binding (fluorescence polarization); details: 150 nM His-Menin, 15 nM FITC-MLL, 25°C for 60 min
T1 construct: His-Menin (M1-L615 end); purchased BIORTUS BP9210
T1 sequence (O00255 1-615 isoform O00255-1): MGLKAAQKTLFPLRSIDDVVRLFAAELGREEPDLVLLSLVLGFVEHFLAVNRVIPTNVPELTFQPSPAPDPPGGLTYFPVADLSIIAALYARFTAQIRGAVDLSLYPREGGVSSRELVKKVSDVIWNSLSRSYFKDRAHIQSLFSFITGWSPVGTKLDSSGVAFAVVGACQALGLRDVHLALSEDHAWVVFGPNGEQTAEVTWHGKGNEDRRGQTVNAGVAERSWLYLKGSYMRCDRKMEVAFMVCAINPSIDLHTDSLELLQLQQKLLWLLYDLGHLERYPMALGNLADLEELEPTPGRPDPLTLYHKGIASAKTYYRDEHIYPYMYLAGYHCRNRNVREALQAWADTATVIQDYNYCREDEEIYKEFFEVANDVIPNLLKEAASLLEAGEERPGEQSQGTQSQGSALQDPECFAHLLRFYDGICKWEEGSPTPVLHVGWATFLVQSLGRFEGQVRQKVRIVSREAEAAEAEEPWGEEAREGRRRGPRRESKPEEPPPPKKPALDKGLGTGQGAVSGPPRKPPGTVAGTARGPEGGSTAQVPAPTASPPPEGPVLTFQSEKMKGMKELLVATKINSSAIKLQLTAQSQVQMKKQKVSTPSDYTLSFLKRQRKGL
How it was run: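 His-Menin (M1-L615, 150 nM) preincubated with compound 15 min at 25 °C in HEPES pH 7.5, 50 mM NaCl, 1 mM DTT, 0.01% BSA, then 15 nM FITC-MLL4-43 peptide added for 60 min at 25 °C. Fluorescence polarization read; IC50 from 4-parameter logistic fit, duplicates.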

[1] = test system: MV-4-11 (carrying MLL-AF4); assay: Inhibition of proliferation of human tumor cells (Alamar Blue, 7 days), MV-4-11; type: cell-based; details: Homo sapiens, MV4-11, 168 h, MV-4-11 cells (carrying MLL-AF4), method calls the value GI50
How it was run: (§1)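 MV-4-11: IMDM + 10% FBS; KG-1a: IMDM + 20% FBS; MOLM-13: RPMI-1640 + 20% FBS. 3- or 4-fold serial dilutions, duplicates, 7 d at 37°C. Readout Alamar Blue; GI50 vs Day 0 and Day 7 DMSO controls.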

[2] = test system: MOLM-13 (carrying MLL-AF9); assay: Inhibition of proliferation of human tumor cells (Alamar Blue, 7 days), MOLM-13; type: cell-based; details: Homo sapiens, MOLM-13 cells (carrying MLL-AF9), method calls the value GI50
How it was run: as §1

KG-1a (wild-type MLL) = assay: Inhibition of proliferation of human tumor cells (Alamar Blue, 7 days), KG-1a control cell line; type: cell-based; details: 168 h, KG-1a cells (wild-type MLL, control cell line), method calls the value GI50
Description: Experimental Example 2: Evaluation of Inhibitory Activity of Compounds Against Proliferation of Human Tumor Cells
• Human acute lymphoblastic leukemia cells MV-4-11, purchased from American Type Culture Collection, Catalog Number: CRL-9591; • Human acute myeloid leukemia cells MOLM-13, purchased from COBIOER BIOSCIENCES CO., LTD, Catalog Number: CBP60678; • Human acute myeloid leukemia cells KG-1a, purchased from American Type Culture Collection, Catalog Number: CCL-246.1; • Inverted Microscope, purchased from Olympus Tokyo; • Countess™ Automated Cell Counter, purchased from Invitrogen, Model: C10281; and • Multilabel Reader, purchased from Bio-Tek, Model: Synergy HT.
MV-4-11 cells were cultured in an IMDM medium containing 10% fetal bovine serum, KG-a cells were cultured in an IMDM medium containing 20% fetal bovine serum, or MOLM-13 cells were cultured in an RPMI-1640 medium containing 20% fetal bovine serum, each supplemented with 100 U·mL^-1 penicillin and 100 µg·mL^-1 streptomycin. These cells were cultured at 37°C with 5% CO2. The suspensions of individual cell lines were prepared in their respective media and seeded into 96-well plates at a density of 4,000 cells/well for MV-4-11 and MOLM-13 cells, or 3,000 cells/well for KG-1a cells. On the day of the experiment, a compound stock solution was diluted in a 3-fold or 4-fold gradient using DMSO. Each gradient-diluted stock solution was then further diluted 250-fold with a complete medium to prepare a series of working solutions at different concentrations. Subsequently, 100 µL of working solution (containing a 2-fold concentration series of the test compound) was added to each well, with duplicate wells set up for each concentration.
Seven days after compound addition (on Day 7), an Alamar Blue assay reagent (MCE, HY-111391 / CS-0040317) was added to measure the fluorescence intensity in each well. Wells containing the cells in the growth medium supplemented with 0.1% DMSO (Day 7) served as high-read control wells. The readouts from the wells containing the cells in the growth medium supplemented with 0.1% DMSO on the day of compound addition (Day 0) served as low-reading control well. GraphPad Prism software was used to calculate the concentration required to inhibit 50% of cell proliferation (GI50), which serves as a cell proliferation inhibition activity index.

[3] = fluorescence polarization, read-out: Menin-MLL IC50

Row | Compound | IC50 (Menin-MLL; [3]) [nM] | IC50 [1] [nM] | IC50 ([2]; 168 h) [nM] | IC50 (KG-1a (wild-type MLL)) [nM] | IC50 (Menin-MLL; Menin-MLL IC50, fluorescence polarization) [nM] | IC50 ([2]; MOLM-13, 168 h) [nM]
1 | Cc1nc(F)c2c(-c3ccc(F)cc3C(=O)N3CCOC[C@H]3C)cc(C3CN(C[C@H]4CC[C@@H](n5cncn5)CC4)C3)cn12 [Example 267, (3R)-4-{5-fluoro-2-[1-fluoro-3-methyl-6-(1-{[(1s,4s)-4-(1H-1,2,4-triazol-1-yl)cyclohexyl]methyl}azacyclobutan-3-yl)imidazo[1,5-a]pyridin-8yl]benzoyl}-3-methylmorpholine] | 12 | 20 | 45 | – | – | –
2 | Cc1nc(F)c2c(-c3ccc(F)cc3C(=O)N3CCOC[C@H]3C)cc(C3CN(CC4CCN(C(=O)C(F)F)CC4)C3)cn12 [Example 268] | 32.5 | 36 | 96 | – | – | –
3 | Cc1nc(F)c2c(-c3ccc(F)cc3C(=O)N3CCOC[C@H]3C)cc(C3CN(CC4CCN(C(=O)C5CC5)CC4)C3)cn12 [Example 269] | 33.5 | 37 | 83 | – | – | –
4 | Cc1nc(F)c2c(-c3ccc(F)cc3C(=O)N3CCOC[C@H]3C)cc(C3CN(CC4CCN(C(=O)CC(C)C)CC4)C3)cn12 [Example 271] | 27 | 12 | 33 | – | – | –
5 | Cc1nc(F)c2c(-c3ccc(F)cc3C(=O)N3CCOC[C@H]3C)cc(C3CN([C@@H](C)C4CCN(C(=O)C5(O)CC5)CC4)C3)cn12 [Example 278] | 11 | 8.3 | 24 | – | – | –
6 | CCN(C(=O)c1cc(F)ccc1-c1cc(C2CN(C(C)C3CCN(C(C)=O)CC3)C2)cn2c(C)nc(F)c12)C(C)C (stereo not drawn) [Example 288] | 6 | 15 | 55 | – | – | –
7 | CCCC(=O)N1CCC([C@H](C)N2CC(c3cc(-c4ccc(F)cc4C(=O)N4CCOC[C@H]4C)c4c(F)nc(C)n4c3)C2)CC1 [Example 294] | 9.5 | 4.9 | 46 | – | – | –
8 | CCN(C(=O)c1cc(F)ccc1-c1cc(C2CN([C@H](CCCN(C)CCOC)C(C)C)C2)cn2c(C)nc(F)c12)C(C)C [Example 307-2, N-ethyl-5-fluoro-2-(1-fluoro-6-{1-[(3R)-6-[(2-methoxyethyl)(methyl)amino]-2-methylhexan-3-yl]azacyclobutan-3-yl}-3-methylimidazo[1,5-a]pyridin-8-yl)-N-(isopropyl)benzamide] | 6 | 0.69 | 3.7 | – | – | –
9 | Cc1nc(F)c2c(-c3ccc(F)cc3C(=O)N3CCOC[C@H]3C)cc(C3CN([C@H](CCCN4CCn5nccc5C4)C(C)C)C3)cn12 [Example 351, (3R)-4-[5-fluoro-2-(1-fluoro-3-methyl-6-{1-[(3R)-2-methyl-6-{4H,5H,6H,7H-pyrazolo[1,5-a]pyrazin-5-yl}hexan-3-yl]azacyclobutan-3-yl}imidazo[1,5-a]pyridin-8-yl)benzoyl]-3-methylmorpholine] | 12.5 | – | 44 | > 20000 | – | –
10 | CC(C)[C@@H](CCCN1CCN(C)CC1)N1CC(c2cc(-c3ccc(F)cc3C(=O)N3CCOC[C@H]3C)c3cnn(C)c3c2)C1 [Example 358] | – | – | – | > 20000 | 13.5 | 91
11 | CCN(C(=O)c1cc(F)ccc1-c1cc(C2CN([C@H](CN3CCN(C)CC3)C(C)C)C2)cc2c1cnn2C)C(C)C [Example 402-2, N-ethyl-5-fluoro-2-(1-methyl-6-{1-[(2S)-3-methyl-1-(4-methylpiperazin-1-yl)butan-2-yl]azacyclobutan-3-yl}-1H-indazol-4-yl)-N-(isopropyl)benzamide] | 10 | – | 65 | 11000 | – | –

Further lines, with some results ahead:

Row | IC50 (Menin-MLL; [3]) [nM] | IC50 [1] [nM] | IC50 ([2]; 168 h) [nM] | IC50 (KG-1a (wild-type MLL)) [nM] | Compound | IC50 (Menin-MLL; Menin-MLL IC50, fluorescence polarization) [nM] | IC50 ([2]; MOLM-13, 168 h) [nM]
12 | 6 | 3.3 | 7.4 | – | CCNC(=O)N1CCC([C@H](C)N2CC(c3cc(-c4ccc(F)cc4C(=O)N4CCOC[C@H]4C)c4c(F)nc(C)n4c3)C2)CC1 [Example 279] | – | –
13 | 4 | 5.4 | 25 | – | CCNC(=O)N1CCC(C(C)N2CC(c3cc(-c4ccc(F)cc4C(=O)N(CC)C(C)C)c4c(F)nc(C)n4c3)C2)CC1 (stereo not drawn) [Example 282, N-ethyl-4-{1-[3-(8-{2-[ethyl(isopropyl)aminoformyl]-4-fluorophenyl}-1-fluoro-3-methylimidazo[1,5-a]pyridin-6-yl)azacyclobutan-1-yl]ethyl}piperidin-1-formamide] | – | –
14 | 4 | 5.4 | 23 | – | CCNC(=O)N1CCC(C(C)N2CC(c3cc(-c4ccc(F)cc4C(=O)N(CC)C(C)C)c4cnc(C)n4c3)C2)CC1 (stereo not drawn) [Example 285] | – | –
15 | 4 | 5.2 | 24 | – | CCNC(=O)N1CCC(CN2CC(c3cc(-c4ccc(F)cc4C(=O)N(CC)C(C)C)c4cnc(C)n4c3)C2)CC1 [Example 290] | – | –
16 | 5 | 19 | 47 | – | CCC(=O)N1CCC([C@H](C)N2CC(c3cc(-c4ccc(F)cc4C(=O)N4CCOC[C@H]4C)c4c(F)nc(C)n4c3)C2)CC1 [Example 295] | – | –
17 | 1 | 0.75 | 3 | – | CCN(C(=O)c1cc(F)ccc1-c1cc(CC2CN([C@H](CCCN(C)CCOC)C(C)C)C2)n2c(C)cncc12)C(C)C [Example 296-1, N-ethyl-5-fluoro-2-[6-({1-[(3R)-6-[(2-methoxyethyl)(methyl)amino]-2-methylhexan-3-yl]azacyclobutan-3-yl}methyl)-4-methylpyrrolo[1,2-a]pyrazin-8-yl]-N-(isopropyl)benzamide] | – | –
18 | 1.9 | – | 5.3 | 12000 | CCN(C(=O)c1cc(F)ccc1-c1cc(C2CN([C@H](CCCN3CCC(OC)CC3)C(C)C)C2)cn2c(C)ncc12)C(C)C [Example 389, N-ethyl-5-fluoro-2-(6-{1-[(3R)-6-(4-methoxypiperidin-1-yl)-2-methylhexan-3-yl]azacyclobutan-3-yl}-3-methylimidazo[1,5-a]pyridin-8-yl)-N-(isopropyl)benzamide] | – | –
19 | 3 | – | 22 | > 20000 | CCN(C(=O)c1cc(F)ccc1-c1cc(C2CN([C@H](CCCO)C(C)C)C2)cn2c(C)ncc12)C(C)C [Example 396, N-ethyl-5-fluoro-2-(6-{1-[(3R)-6-hydroxyl-2-methylhexan-3-yl]azacyclobutan-3-yl}-3-methylimidazo[1,5-a]pyridin-8-yl)-N-(isopropyl)benzamide] | – | –
20 | 3.8 | 18 | 43 | – | CCN(C(=O)c1cc(F)ccc1-c1cc(C2CN([C@H](CCCN3CCN(C)CC3)C(C)C)C2)cc2c1cnn2C)C(C)C [Example 420] | – | –
